Source: US20250368634A1, “PHENYL AMIDE COMPOUNDS AND METHODS OF USE” (SCHRÖDINGER, INC., priority 2022, published 2025)

target: SOS1-KRas (G12C) (Homo sapiens (Human), UniProt Q07889); test: SOS1-KRas (G12C) FRET Assay; format: binding; settings: inhibition of SOS1:KRAS interaction; 0.5 nM His10-SOS1 (res. 564-1049), 2.5 nM GST-KRAS (res. 1-169, G12C); 2 hrs at RT
Sequence (Q07889 564-1049, stated change not applied): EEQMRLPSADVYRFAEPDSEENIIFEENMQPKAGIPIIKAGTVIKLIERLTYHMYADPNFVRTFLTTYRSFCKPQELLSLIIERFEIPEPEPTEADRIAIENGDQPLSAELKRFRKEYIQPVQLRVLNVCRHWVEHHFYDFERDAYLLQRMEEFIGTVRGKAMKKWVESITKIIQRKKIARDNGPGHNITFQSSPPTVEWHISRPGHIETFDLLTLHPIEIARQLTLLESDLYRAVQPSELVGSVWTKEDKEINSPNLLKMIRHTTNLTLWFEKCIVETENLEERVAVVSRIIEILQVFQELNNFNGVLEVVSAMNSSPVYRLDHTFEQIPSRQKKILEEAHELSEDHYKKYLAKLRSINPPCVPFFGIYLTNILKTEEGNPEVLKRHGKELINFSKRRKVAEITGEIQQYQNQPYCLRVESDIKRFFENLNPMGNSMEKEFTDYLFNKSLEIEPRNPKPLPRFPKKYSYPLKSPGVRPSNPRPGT

Compound | IC50 [nM]
C[C@@H](NC(=O)c1cc(-c2ccncn2)c(F)cc1NC1CCN(C)CC1)c1cccc(C(F)F)c1F [Example 66, (R)—N-(1-(3-(difluoromethyl)-2-fluorophenyl)ethyl)-4-fluoro-2-((1-methylpiperidin-4-yl)amino)-5-(pyrimidin-4-yl)benzamide] | 34.9
C[C@@H](NC(=O)c1cc(C2CC2)c(F)cc1NC1CCN(C)CC1)c1cccc(C(F)F)c1F [Example 67, (R)-5-cyclopropyl-N-(1-(3-(difluoromethyl)-2-fluorophenyl)ethyl)-4-fluoro-2-((1-methylpiperidin-4-yl)amino)benzamide] | 216
C[C@@H](NC(=O)c1cc(C23CC(C2)C3)c(F)cc1NC1CCN(C)CC1)c1cccc(C(F)F)c1F [Example 68, (R)-5-(bicyclo[1.1.1]pentan-1-yl)-N-(1-(3-(difluoromethyl)-2-fluorophenyl)ethyl)-4-fluoro-2-((1-methylpiperidin-4-yl)amino)benzamide] | 138
C[C@@H](NC(=O)c1cc(C23CC(C2)C3)c(F)cc1N[C@H]1CN2CCC1CC2)c1cccc(C(F)F)c1F [Example 69, 5-(bicyclo[1.1.1]pentan-1-yl)-N—((R)-1-(3-(difluoromethyl)-2-fluorophenyl)ethyl)-4-fluoro-2-(((R)-quinuclidin-3-yl)amino)benzamide] | 120
C[C@@H](NC(=O)c1cc(C23CC(C2)C3)c(F)cc1N[C@@H]1CN2CCC1CC2)c1cccc(C(F)F)c1F [Example 70, 5-(bicyclo[1.1.1]pentan-1-yl)-N—((R)-1-(3-(difluoromethyl)-2-fluorophenyl)ethyl)-4-fluoro-2-(((S)-quinuclidin-3-yl)amino)benzamide] | 347
C[C@@H](NC(=O)c1cc(N2CCOCC2)c(Cl)cc1N[C@H]1CN2CCC1CC2)c1cccc(C(F)F)c1F [Example 80, 4-chloro-N—((R)-1-(3-(difluoromethyl)-2-fluorophenyl)ethyl)-5-morpholino-2-(((R)-quinuclidin-3-yl)amino)benzamide] | 44.3
C[C@@H](NC(=O)c1cc(N2CCOCC2)c(Cl)cc1N[C@@H]1CN2CCC1CC2)c1cccc(C(F)F)c1F [Example 81, 4-chloro-N—((R)-1-(3-(difluoromethyl)-2-fluorophenyl)ethyl)-5-morpholino-2-(((S)-quinuclidin-3-yl)amino)benzamide] | 12.6

Now from value to molecule:

IC50 [nM] | Compound
93.6 | COC(=O)c1cc(C(=O)N[C@H](C)c2cccc(C(F)F)c2F)c(NC2CCN(C)CC2)cc1F [Example 71, methyl (R)-5-((1-(3-(difluoromethyl)-2-fluorophenyl)ethyl)carbamoyl)-2-fluoro-4-((1-methylpiperidin-4-yl)amino)benzoate]
11.4 | C[C@@H](NC(=O)c1cc(-c2nnco2)c(F)cc1NC1CCN(C)CC1)c1cccc(C(F)F)c1F [Example 72, (R)—N-(1-(3-(difluoromethyl)-2-fluorophenyl)ethyl)-4-fluoro-2-((1-methylpiperidin-4-yl)amino)-5-(1,3,4-oxadiazol-2-yl)benzamide]
148 | CNC(=O)c1cc(C(=O)N[C@H](C)c2cccc(C(F)F)c2F)c(NC2CCN(C)CC2)cc1F [Example 73, (R)—N1-(1-(3-(difluoromethyl)-2-fluorophenyl)ethyl)-4-fluoro-N3-methyl-6-((1-methylpiperidin-4-yl)amino)isophthalamide]
888 | C[C@@H](NC(=O)c1cc(C(=O)N2CCC(F)(F)CC2)c(F)cc1NC1CCN(C)CC1)c1cccc(C(F)F)c1F [Example 74, (R)—N-(1-(3-(difluoromethyl)-2-fluorophenyl)ethyl)-5-(4,4-difluoropiperidine-1-carbonyl)-4-fluoro-2-((1-methylpiperidin-4-yl)amino)benzamide]
244 | C[C@@H](NC(=O)c1cc(C(=O)N(C)C)c(F)cc1NC1CCN(C)CC1)c1cccc(C(F)F)c1F [Example 75, (R)—N1-(1-(3-(difluoromethyl)-2-fluorophenyl)ethyl)-4-fluoro-N3,N3-dimethyl-6-((1-methylpiperidin-4-yl)amino)isophthalamide]
874 | CC(C)NC(=O)c1cc(C(=O)N[C@H](C)c2cccc(C(F)F)c2F)c(NC2CCN(C)CC2)cc1F [Example 76, (R)—N1-(1-(3-(difluoromethyl)-2-fluorophenyl)ethyl)-4-fluoro-N3-isopropyl-6-((1-methylpiperidin-4-yl)amino)isophthalamide]
240 | C[C@@H](NC(=O)c1cc(C(=O)N2CCOCC2)c(F)cc1NC1CCN(C)CC1)c1cccc(C(F)F)c1F [Example 77, (R)—N-(1-(3-(difluoromethyl)-2-fluorophenyl)ethyl)-4-fluoro-2-((1-methylpiperidin-4-yl)amino)-5-(morpholine-4-carbonyl)benzamide]
230 | COC(=O)c1ccc(NC2CCN(C)CC2)c(C(=O)N[C@H](C)c2cccc(C(F)F)c2F)c1 [Example 78, methyl (R)-3-((1-(3-(difluoromethyl)-2-fluorophenyl)ethyl)carbamoyl)-4-((1-methylpiperidin-4-yl)amino)benzoate]
39.1 | C[C@@H](NC(=O)c1cc(N2CCOCC2)c(C(F)F)cc1NC1CCN(C)CC1)c1cccc(C(F)F)c1F [Example 79, (R)-4-(difluoromethyl)-N-(1-(3-(difluoromethyl)-2-fluorophenyl)ethyl)-2-((1-methylpiperidin-4-yl)amino)-5-morpholinobenzamide]
